MIC and IC90 data for 29 compounds are collected here from publication PMC11811690 (Angewandte Chemie (International Ed. in English), 2024).

Holding throughout (assay): microbe, parasite or virus in culture
The test system of test [1] is M. tuberculosis H37Rv poly-g-GFP. The format is cell-based. The note with it: Mycobacterium tuberculosis, 336 h, read-out: MIC Mtb H37Rv-poly-g-GFP, turbidity read-out.
Another test has as its system C. difficile 630. The class given is cell-based, Clostridioides difficile.
Test [2] concerns M. tuberculosis H37Rv poly-g-GFP. The class given is cell-based. The note with it: Mycobacterium tuberculosis, H37RV, 240 h, read-out: IC90 Mtb H37Rv-poly-g-GFP, fluorescence read-out.
Setting [3] is: Clostridioides difficile, C. difficile 630, anaerobic, overnight, growth suppressed to OD600 < 0.15, read-out: MIC C. difficile.
[4] abbreviates: concentration for 90 % inhibition of fluorescence as proxy for growth inhibition, 10 days, 37 °C.

Broadly, the IC90 is the concentration needed for an effect of 90%.

Molecules are shown by their SMILES. Values after ≈ are worked out from the molar mass of the structure shown. Like-named read-outs stand apart in the source and are kept apart here.

Take `CO[C@H]1/C=C/O[C@@]2(C)Oc3c(C)c(O)c4c(O)c(c(/C=N/N5CCN(C)CC5)c(O)c4c3C2=O)NC(=O)/C(C)=C\C=C\[C@H](C)[C@H](O)[C@@H](C)[C@@H](O)[C@@H](C)[C@H](OC(C)=O)[C@@H]1C` [Rif, Rifampicin, reference compound]: the MIC in test [1] was less than 0.12 µg/mL.
With `CC[C@H]1/C=C(\C)[C@@H](O)C/C=C/C=C(\CN2CCN(c3ccccc3)CC2)C(=O)O[C@H]([C@@H](C)O)C/C=C(C)/C=C(\C)[C@@H]1O[C@@H]1OC(C)(C)[C@@H](OC(=O)C(C)C)[C@H](O)[C@@H]1O` [compound 2], in the test on C. difficile 630 (setting [3]), the MIC is greater than 32 µg/mL. The IC90 in test [2] came out at 16 µg/mL (≈ 19.8 µM).
In the case of `CC[C@H]1/C=C(\C)[C@@H](O)C/C=C/C=C(\CN2CCN(c3ccncc3)CC2)C(=O)O[C@H]([C@@H](C)O)C/C=C(C)/C=C(\C)[C@@H]1O[C@@H]1OC(C)(C)[C@@H](OC(=O)C(C)C)[C@H](O)[C@@H]1O` [compound 3], the IC90 in test [2] stood at 16 µg/mL (≈ 19.8 µM).
Same read-out and setting: with `CC[C@H]1/C=C(\C)[C@@H](O)C/C=C/C=C(\CN2CCN(CCOc3ncccn3)CC2)C(=O)O[C@H]([C@@H](C)O)C/C=C(C)/C=C(\C)[C@@H]1O[C@@H]1OC(C)(C)[C@@H](OC(=O)C(C)C)[C@H](O)[C@@H]1O` [compound 4] the figure was greater than 64 µg/mL.
For `CC[C@H]1/C=C(\C)[C@@H](O)C/C=C/C=C(\CN2CCN(Cc3ccc(F)cc3)CC2)C(=O)O[C@H]([C@@H](C)O)C/C=C(C)/C=C(\C)[C@@H]1O[C@@H]1OC(C)(C)[C@@H](OC(=O)C(C)C)[C@H](O)[C@@H]1O` [compound 6], in the test on C. difficile 630 (setting [3]), the MIC is 16 µg/mL (≈ 19 µM). Also, the IC90 in test [2] was 16 µg/mL (≈ 19 µM).
As for `CC[C@H]1/C=C(\C)[C@@H](O)C/C=C/C=C(\CN(C)Cc2nnc(-c3ccccc3)o2)C(=O)O[C@H]([C@@H](C)O)C/C=C(C)/C=C(\C)[C@@H]1O[C@@H]1OC(C)(C)[C@@H](OC(=O)C(C)C)[C@H](O)[C@@H]1O` [compound 7], the values for the MIC (with C. difficile 630 (setting [3]); in test [1]) were 16 µg/mL (≈ 19.1 µM) and 8 µg/mL (≈ 9.57 µM), respectively. In addition, the IC90 in test [2] is 8 µg/mL (≈ 9.57 µM).
Turning to `CC[C@H]1/C=C(\C)[C@@H](O)C/C=C/C=C(\CNc2nc3ccccc3s2)C(=O)O[C@H]([C@@H](C)O)C/C=C(C)/C=C(\C)[C@@H]1O[C@@H]1OC(C)(C)[C@@H](OC(=O)C(C)C)[C@H](O)[C@@H]1O` [compound 9], the MIC in the test on C. difficile 630 (setting [3]) was 2 µg/mL (≈ 2.51 µM); in test [1], 4 to 8 µg/mL (≈ 5.02 to 10 µM). For the same compound, the IC90 in test [2] was determined as 8 µg/mL (≈ 10 µM).
In the case of `CC[C@H]1/C=C(\C)[C@@H](O)C/C=C/C=C(\CNc2nc3c(s2)CCCC3)C(=O)O[C@H]([C@@H](C)O)C/C=C(C)/C=C(\C)[C@@H]1O[C@@H]1OC(C)(C)[C@@H](OC(=O)C(C)C)[C@H](O)[C@@H]1O` [compound 11], the MIC in the test with C. difficile 630 (setting [3]) lay within 8 to 16 µg/mL (≈ 9.99 to 20 µM). For the same compound, the IC90 in test [2] worked out at 16 µg/mL (≈ 20 µM).
Regarding `CC[C@H]1/C=C(\C)[C@@H](O)C/C=C/C=C(\CNc2nc3c(s2)CN(C)CC3)C(=O)O[C@H]([C@@H](C)O)C/C=C(C)/C=C(\C)[C@@H]1O[C@@H]1OC(C)(C)[C@@H](OC(=O)C(C)C)[C@H](O)[C@@H]1O` [compound 12], the IC90 in test [2] is 32 µg/mL (≈ 39.2 µM).
Consider `CC[C@H]1/C=C(\C)[C@@H](O)C/C=C/C=C(\CNCc2nc3ccccc3s2)C(=O)O[C@H]([C@@H](C)O)C/C=C(C)/C=C(\C)[C@@H]1O[C@@H]1OC(C)(C)[C@@H](OC(=O)C(C)C)[C@H](O)[C@@H]1O` [compound 14], for which, in the test with C. difficile 630 (setting [3]), the MIC is greater than 32 µg/mL. For the same compound, the IC90 in test [2] amounted to 16 µg/mL (≈ 19.7 µM).
With `CC[C@H]1/C=C(\C)[C@@H](O)C/C=C/C=C(\CNCc2cc(-c3ccccc3)no2)C(=O)O[C@H]([C@@H](C)O)C/C=C(C)/C=C(\C)[C@@H]1O[C@@H]1OC(C)(C)[C@@H](OC(=O)C(C)C)[C@H](O)[C@@H]1O` [compound 15], in test [2], the IC90 was determined as 16 µg/mL (≈ 19.5 µM).
`CC[C@H]1/C=C(\C)[C@@H](O)C/C=C/C=C(\CNCc2nnc(-c3cc(Cl)cc(Cl)c3O)o2)C(=O)O[C@H]([C@@H](C)O)C/C=C(C)/C=C(\C)[C@@H]1O[C@@H]1OC(C)(C)[C@@H](OC(=O)C(C)C)[C@H](O)[C@@H]1O` [compound 17]: in the test on C. difficile 630 (setting [3]), the MIC was determined as 2 µg/mL (≈ 2.21 µM). The IC90 in test [2] amounted to 32 µg/mL (≈ 35.3 µM).
For the compound `CC[C@H]1/C=C(\C)[C@@H](O)C/C=C/C=C(\CNCc2nnc(C)o2)C(=O)O[C@H]([C@@H](C)O)C/C=C(C)/C=C(\C)[C@@H]1O[C@@H]1OC(C)(C)[C@@H](OC(=O)C(C)C)[C@H](O)[C@@H]1O` [compound 19], in the test with C. difficile 630 (setting [3]), the MIC came out at 32 µg/mL (≈ 42.1 µM). For the same compound, the IC90 in test [2] came to 16 µg/mL (≈ 21.1 µM).
As for `CC[C@H]1/C=C(\C)[C@@H](O)C/C=C/C=C(\CNc2cccc(CNC(=O)CCC(=O)O)c2)C(=O)O[C@H]([C@@H](C)O)C/C=C(C)/C=C(\C)[C@@H]1O[C@@H]1OC(C)(C)[C@@H](OC(=O)C(C)C)[C@H](O)[C@@H]1O` [compound 28], the MIC in the test with C. difficile 630 (setting [3]) turned out to be 32 µg/mL (≈ 36.8 µM). Further, the IC90 in test [2] (setting [4]) is greater than 64 µg/mL.
`CC[C@H]1/C=C(\C)[C@@H](O)C/C=C/C=C(\CNc2cccc(CNC(=O)Cc3nnn[nH]3)c2)C(=O)O[C@H]([C@@H](C)O)C/C=C(C)/C=C(\C)[C@@H]1O[C@@H]1OC(C)(C)[C@@H](OC(=O)C(C)C)[C@H](O)[C@@H]1O` [compound 29]: in the test with C. difficile 630 (setting [3]), the MIC was greater than 32 µg/mL. Besides, the IC90 in test [2] (setting [4]) was 64 µg/mL (≈ 72.8 µM).
In the case of `CC[C@H]1/C=C(\C)[C@@H](O)C/C=C/C=C(\CNc2cccc(CNC(=O)c3ccc(O)c(O)c3Cl)c2)C(=O)O[C@H]([C@@H](C)O)C/C=C(C)/C=C(\C)[C@@H]1O[C@@H]1OC(C)(C)[C@@H](OC(=O)C(C)C)[C@H](O)[C@@H]1O` [compound 31], the MIC with C. difficile 630 (setting [3]) is 32 µg/mL (≈ 34.1 µM). For the same compound, in test [2] (setting [4]), the IC90 was greater than 64 µg/mL.
The corresponding values for `CC[C@H]1/C=C(\C)[C@@H](O)C/C=C/C=C(\CNc2nc(-c3cccc(O)c3)cs2)C(=O)O[C@H]([C@@H](C)O)C/C=C(C)/C=C(\C)[C@@H]1O[C@@H]1OC(C)(C)[C@@H](OC(=O)C(C)C)[C@H](O)[C@@H]1O` [compound 32] are 8 µg/mL (≈ 9.53 µM) and 4 to 8 µg/mL (≈ 4.77 to 9.53 µM).
As to `CC[C@H]1/C=C(\C)[C@@H](O)C/C=C/C=C(\CNc2nc(-c3cccc(OS(=O)(=O)F)c3)cs2)C(=O)O[C@H]([C@@H](C)O)C/C=C(C)/C=C(\C)[C@@H]1O[C@@H]1OC(C)(C)[C@@H](OC(=O)C(C)C)[C@H](O)[C@@H]1O` [compound 33], the MIC with C. difficile 630 (Clostridioides difficile, 630, read-out: MIC C. difficile) was greater than 32 µg/mL. Further, the IC90 in test [2] (setting [4]) lay within 8 to 16 µg/mL (≈ 8.69 to 17.4 µM).
As for `CC[C@H]1/C=C(\C)[C@@H](O)C/C=C/C=C(\CNc2nc(-c3cccc(OS(=O)(=O)NC)c3)cs2)C(=O)O[C@H]([C@@H](C)O)C/C=C(C)/C=C(\C)[C@@H]1O[C@@H]1OC(C)(C)[C@@H](OC(=O)C(C)C)[C@H](O)[C@@H]1O` [compound 34], the MIC in the test on C. difficile 630 (setting [3]) is 1 µg/mL (≈ 1.07 µM). Besides, in test [2] (setting [4]), the IC90 turned out to be 8 µg/mL (≈ 8.58 µM).
In the same order, the values of `CC[C@H]1/C=C(\C)[C@@H](O)C/C=C/C=C(\CNc2nc(-c3cccc(OS(=O)(=O)N(C)C)c3)cs2)C(=O)O[C@H]([C@@H](C)O)C/C=C(C)/C=C(\C)[C@@H]1O[C@@H]1OC(C)(C)[C@@H](OC(=O)C(C)C)[C@H](O)[C@@H]1O` [compound 35] are greater than 32 µg/mL and 8 µg/mL (≈ 8.45 µM).
In the same order, the values of `CC[C@H]1/C=C(\C)[C@@H](O)C/C=C/C=C(\CNc2nc(-c3cccc(OS(=O)(=O)N4CCCC4)c3)cs2)C(=O)O[C@H]([C@@H](C)O)C/C=C(C)/C=C(\C)[C@@H]1O[C@@H]1OC(C)(C)[C@@H](OC(=O)C(C)C)[C@H](O)[C@@H]1O` [compound 36] are greater than 32 µg/mL and 8 µg/mL (≈ 8.23 µM).
The corresponding values for `CC[C@H]1/C=C(\C)[C@@H](O)C/C=C/C=C(\CNc2nc(-c3cccc(OS(=O)(=O)NCCOC)c3)cs2)C(=O)O[C@H]([C@@H](C)O)C/C=C(C)/C=C(\C)[C@@H]1O[C@@H]1OC(C)(C)[C@@H](OC(=O)C(C)C)[C@H](O)[C@@H]1O` [compound 37] are 2 µg/mL (≈ 2.05 µM) and 8 µg/mL (≈ 8.19 µM).
`CC[C@H]1/C=C(\C)[C@@H](O)C/C=C/C=C(\CNc2nc(-c3cccc(OS(=O)(=O)Oc4ccccc4)c3)cs2)C(=O)O[C@H]([C@@H](C)O)C/C=C(C)/C=C(\C)[C@@H]1O[C@@H]1OC(C)(C)[C@@H](OC(=O)C(C)C)[C@H](O)[C@@H]1O` [compound 38]: the MIC with C. difficile 630 (setting [3]) is greater than 32 µg/mL. The IC90 in test [2] (setting [4]) is greater than 64 µg/mL.
In the case of `CC[C@H]1/C=C(\C)[C@@H](O)C/C=C/C=C(\CN2CCN(C)CC2)C(=O)O[C@H]([C@@H](C)O)C/C=C(C)/C=C(\C)[C@@H]1O[C@@H]1OC(C)(C)[C@@H](O)[C@H](OC(=O)c2ccoc2)[C@@H]1O` [compound 41], in test [2] (setting [4]), the IC90 is greater than 64 µg/mL.
Same read-out and setting: the figure for `CC[C@H]1/C=C(\C)[C@@H](O)C/C=C/C=C(\CN2CCCCC2)C(=O)O[C@H]([C@@H](C)O)C/C=C(C)/C=C(\C)[C@@H]1O[C@@H]1OC(C)(C)[C@@H](O)[C@H](OC(=O)c2ccoc2)[C@@H]1O` [compound 42] is greater than 64 µg/mL; for `CC[C@H]1/C=C(\C)[C@@H](O)C/C=C/C=C(\CN2CCN(CCCN(C)C)CC2)C(=O)O[C@H]([C@@H](C)O)C/C=C(C)/C=C(\C)[C@@H]1O[C@@H]1OC(C)(C)[C@@H](O)[C@H](OC(=O)c2ccoc2)[C@@H]1O` [compound 43] it is 32 to 64 µg/mL (≈ 38 to 76 µM).
On the same count and under the same terms, with `CC[C@H]1/C=C(\C)[C@@H](O)C/C=C/C=C(\CN2CCN(C)CC2)C(=O)O[C@H]([C@@H](C)O)C/C=C(C)/C=C(\C)[C@@H]1O[C@@H]1OC(C)(C)[C@@H](O)[C@H](OC(=O)c2ccn(C)n2)[C@@H]1O` [compound 44] the figure was greater than 64 µg/mL.
On the same count and under the same terms, the figure for `CC[C@H]1/C=C(\C)[C@@H](O)C/C=C/C=C(\CN2CCN(C)CC2)C(=O)O[C@H]([C@@H](C)O)C/C=C(C)/C=C(\C)[C@@H]1O[C@@H]1OC(C)(C)[C@@H](O)[C@H](OC(=O)c2ccnn2C)[C@@H]1O` [compound 45] is greater than 64 µg/mL; for `CC[C@H]1/C=C(\C)[C@@H](O)C/C=C/C=C(\CN2CCN(C)CC2)C(=O)O[C@H]([C@@H](C)O)C/C=C(C)/C=C(\C)[C@@H]1O[C@@H]1OC(C)(C)[C@@H](O)[C@H](OC(=O)c2cnn(C)c2)[C@@H]1O` [compound 46] it is greater than 64 µg/mL.
